Laboratory results reported in US5576296A, “Galanin antagonist” (priority 1991, dated 1996).

System: scopolamine-induced release of ACh
Test: Microdialysis: scopolamine-induced release of ACh in vivo from rat ventral hippocampus
Conditions: scopolamine 0.3 mg/kg s.c. alone; peak (second) 20 min fraction; n=2
Description: 2) Galanin inhibits acetylcholine release, measured according to Fisone G., et al (Proc. Natl. Acad. Sci. vol 84, 1987, 7339-7343). By using substantially the same procedure as the cited Fisone G., et al, a peptide according to the invention, M15, is now shown to counteract the inhibitory effects of galanin on the scopolamine-induced release of acetylcholine in vivo.
Surgery and basic methodology. Experiments were carried out with female CD-COBS (Charles River, Como, Italy) rats, weighing 200-260 g. Animals were anesthetized with equitensin (1% pentobarbital, 4% chloral hydrate). […] The microdialysis probe extended 3 mm beyond the end of the guide cannula; it was perfused at a constant rate of 2 μl (min with Ringer's solution (NaCl, 147 mM; CaCl2, 2.2 mM and KCl, 4.0 mM), containing 10 μM physostigmine sulfate and adjusted to pH 7.0 with NaOH. The initial 40 min perfusate was discarded. Thereafter, perfusates were collected every 20 min during a total perfusion period of 260 min. At the end of the collection period, the samples were immediately frozen on solid CO2 and lyophilized. Acetylcholine (Ach) content was quantified by a specific radioenzymatic method described in detail by Consolo S., et al. (J. Neurochem. […]

CN1[C@@H]2C[C@@H](OC(=O)[C@H](CO)c3ccccc3)C[C@H]1[C@@H]1O[C@@H]12 [Scopolamine]
ACh release: 13.1 pmol
